“And” between values parts separate entries of the source, which are not always exact repeats. Identical values can stand only once. Like-named read-outs stand apart in the source and are kept apart here. Where a SMILES comes first, the peptide text is derived from it. Side-chain parts run from the residue outwards. [ ]: non-standard residue; d: D form. The star is where a group is joined. Pentanoyl(4-Me) = CC(C)CCC(=O)*; Hexanoyl = CCCCCC(=O)*; Butyryl = CCCC(=O)*
Experiments:
[1] = test system: Pseudomonas syringae pv. syringae EPS94; type: cell-based; conditions: 48 h
Method: (§1) The following plant pathogenic bacterial strains were used: Erwinia amylovora PMV6076 (Institut National de la Recherche Agronomique, Angers, France), Pseudomonas syringae pv. syringae EPS94 (Institut de Tecnologia Agroalimentària, Universitat de Girona, Spain) and Xanthomonas axonopodis pv. vesicatoria 2133–2 (Instituto Valenciano de Investigaciones Agrarias, Valencia, Spain). All bacteria were stored in Luria Bertani (LB) broth supplemented with glycerol (20%) and maintained at -80°C. Bacteria were scrapped from LB agar after growing for 24–48 h at 25°C. The cell material was suspended in sterile water to obtain a suspension of 10^8 CFU mL^-1.
(§2) Lyophilized peptides were solubilized in sterile Milli-Q water to a final concentration of 1 mM and filter sterilized through a 0.22-μm pore filter. For minimum inhibitory concentration (MIC) assessment, dilutions of the compounds were made to obtain a stock concentration of […]. For antibacterial activity twenty microlitres of each dilution were mixed in a microtiter plate well with 20 μL of the corresponding suspension of the bacterial indicator, 160 μL of Trypticase Soy Broth (TSB) (BioMèrieux, France) to a total volume of 200 μL. For antifungal activity 20 μL of each stock solution were mixed in a microtiter plate well with 80 μL of the corresponding suspension of the fungal pathogen and 100 μL of double concentrated PDB to a total volume of 200 μL containing 0.003% w/v of choramphenicol.
(§3) Three replicates for each strain, compound and concentration were used. Microbial growth was determined by optical density measurement at 600 nm (Bioscreen C, Labsystem, Helsinki, Finland). For antibacterial activity microplates were incubated at 25°C with 20 sec shaking before hourly absorbance measurement for 48 h. For antifungal activity microplates were incubated at 20°C with 1 min shaking before absorbance measurement that were done every two hours during seven days. The experiment was repeated twice. The MIC was taken as the lowest compound concentration with no growth at the end of the experiment.

[2] = test system: Xanthomonas axonopodis pv. vesicatoria 2133–2; type: cell-based; conditions: TSB, 25°C, 48 h, OD 600 nm; tested at 3.1, 6.2, 12.5, 25, 50 μM; three replicates, experiment repeated twice; MIC = lowest concentration with no growth
Method: as §1, §2, §3

[3] = test system: Erwinia amylovora PMV6076; test: MIC, in vitro growth inhibition; type: cell-based; conditions: TSB, 25°C, 48 h, OD 600 nm; tested at 3.1, 6.2, 12.5, 25, 50 μM; three replicates, experiment repeated twice; MIC = lowest concentration with no growth
Method: as §1, §2, §3

[4] = test system: Fusarium oxysporum f. sp. lycopersici FOL 3 race 2; test: MIC, antifungal growth inhibition; type: cell-based
Method: (§4) Fusarium oxysporum f. sp. lycopersici FOL 3 race 2 (ATCC 201829, American Type Culture Collection) was used as fungal pathogen. The strain was cultured on potato dextrose agar (PDA) plates (Difco) and microconidia were obtained after growth at 25°C. The concentration of conidia was determined using a hemacytometer and adjusted to 10^4 conidia mL^-1.
as §2, §3

[5] = test system: E. amylovora, P. syringae pv. syringae, X. axonopodis pv. vesicatoria and F. oxysporum; type: cell-based; conditions: for MIC against three pathogens: three of the four pathogens tested
Method: as §1, §4, §2, §3

[6] = test system: erythrocyte suspensions of horse blood; conditions: horse erythrocytes 5% vol/vol, TRIS buffer pH 7.2, 1 h at 37°C, absorbance 540 nm, relative to melittin 100 μM, ± confidence interval (α = 0.05); for Hemolysis (%) 150 µM: 150 µM peptide; for Hemolysis (%) 250 µM: 250 µM peptide;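 for all read-outs here: Read-out is hemoglobin release into the supernatant, with a buffer-only blank subtracted as the 0% baseline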
Method: Blood was centrifuged at 6000g for 5 min, washed three times with TRIS buffer (10 mM TRIS, 150 mM NaCl, pH 7.2) and diluted.
Compounds were solubilized in TRIS buffer and mixed with horse erythrocytes and the final concentrations tested were 250 and 150 μM. The mixture was incubated under continuous shaking for 1 h at 37°C. Then, the tubes were centrifuged at 3500g for 10 min, 80 μL aliquots of the supernatant transferred to 100-well microplates (Bioscreen), diluted with 80 μL water, and the absorbance measured at 540 nm (Bioscreen). Complete hemolysis was obtained by the addition of melittin at 100 μM (Sigma-Aldrich Corporation, Madrid, Spain). The percentage of hemolysis (H) was calculated using the equation: H = 100×[(Op−Ob)/(Om−Ob)], where Op was the density for a given compound concentration, Ob for the buffer, and Om for the melittin positive control.

[7] = PDB with 0.003% chloramphenicol, 20°C, seven days, OD 600 nm, tested at 3.1, 6.2, 12.5, 25, 50 μM, three replicates, repeated twice

Compound	MIC Pss [1] [µM]	MIC Xav [2]	MIC Ea [3] [µM]	MIC Fo [4] [µM]	MIC Fo [4, 7] [µM]	Antimicrobial activity, in words ([5]; authors' overall judgement over the pathogens tested)	Hemolysis (%) 150 µM [6] [%]	MIC against three pathogens [5] [µM]	Hemolysis (%) 250 µM [6] [%]	MIC Pss ([1]; TSB, 25°C, OD 600 nm, tested at 3.1, 6.2, 12.5, 25, 50 μM, three replicates, experiment repeated twice, MIC = lowest concentration with no growth) [µM]
CC(C)C[C@@H]1NC(=O)[C@H](CCCCN)NC(=O)[C@H](CCCCN)NC(=O)[C@H](CCC(N)=O)NC(=O)[C@H](CC(C)C)NC(=O)[C@H](CCCCN)NC(=O)[C@H](CCCCN)NC(=O)[C@H](Cc2ccccc2)NC(=O)[C@H](CCCCN)NC(=O)[C@H](CCCCN)NC1=O [BPC194] (cyclo(FKKLQKKLKK))	3.1 to 6.2	3.1 to 6.2 µM	6.2 to 12.5	< 3.1	<3.1	high antimicrobial activity	4 ± 1	–	–	–
CC(C)CCC(=O)NCCCC[C@@H]1NC(=O)[C@H](CCCCN)NC(=O)[C@H](CC(C)C)NC(=O)[C@H](CCCCN)NC(=O)[C@H](CCCCN)NC(=O)[C@H](CCC(N)=O)NC(=O)[C@H](CC(C)C)NC(=O)[C@H](CCCCN)NC(=O)[C@H](CCCCN)NC(=O)[C@H](Cc2ccccc2)NC1=O [BPC504, c(KKLKK(CO-isoC5H11)FKKLQ)] (cyclo(FKKLQKKLKK(Pentanoyl(4-Me))))	6.2 to 12.5	3.1 to 6.2 µM	12.5 to 25	–	3.1 to 6.2	–	89 ± 2	< 12.5	–	–
CCCCCC(=O)NCCCC[C@H]1NC(=O)[C@H](CCC(N)=O)NC(=O)[C@H](CC(C)C)NC(=O)[C@H](CCCCN)NC(=O)[C@H](CCCCN)NC(=O)[C@H](Cc2ccccc2)NC(=O)[C@H](CCCCN)NC(=O)[C@H](CCCCN)NC(=O)[C@H](CC(C)C)NC(=O)[C@H](CCCCN)NC1=O [BPC684] (cyclo(FKKLQ[dK](Hexanoyl)KLKK))	12.5 to 25	6.2 to 12.5 µM	25 to 50	–	6.2 to 12.5	–	8 ± 1	–	–	–
CCCC(=O)NCCCC[C@H]1NC(=O)[C@H](CCCCN)NC(=O)[C@H](CCC(N)=O)NC(=O)[C@H](CC(C)C)NC(=O)[C@H](CCCCN)NC(=O)[C@H](CCCCN)NC(=O)[C@H](Cc2ccccc2)NC(=O)[C@H](CCCCN)NC(=O)[C@H](CCCCN)NC(=O)[C@H](CC(C)C)NC1=O [BPC704] (cyclo(FKKLQK[dK](Butyryl)LKK))	6.2 to 12.5	6.2 to 12.5 µM	25 to 50	–	12.5 to 25	–	9 ± 1	–	16 ± 2	–
CCCC(=O)NCCCC[C@@H]1NC(=O)[C@H](CCC(N)=O)NC(=O)[C@H](CC(C)C)NC(=O)[C@H](CCCCN)NC(=O)[C@H](CCCCN)NC(=O)[C@H](Cc2ccccc2)NC(=O)[C@H](CCCCN)NC(=O)[C@H](CCCCN)NC(=O)[C@H](CC(C)C)NC(=O)[C@H](CCCCN)NC1=O [BPC710] (cyclo(FKKLQK(Butyryl)KLKK))	12.5 to 25	3.1 to 6.2 µM	25 to 50	–	<3.1	–	7 ± 1	–	–	–
CCCC(=O)NCCCC[C@@H]1NC(=O)[C@H](CCCCN)NC(=O)[C@H](CC(C)C)NC(=O)[C@H](CCCCN)NC(=O)[C@H](CCCCN)NC(=O)[C@H](CCC(N)=O)NC(=O)[C@H](CC(C)C)NC(=O)[C@H](CCCCN)NC(=O)[C@H](CCCCN)NC(=O)[C@@H](Cc2ccccc2)NC1=O [BPC712, c(KKLKK(CO-C3H7)fKKLQ)] (cyclo(KKLKK(Butyryl)[dF]KKLQ))	12.5 to 25	3.1 to 12.5 µM and 3.1 to 6.2 µM	25 to 50	3.1 to 6.2	3.1 to 6.2	–	30 ± 4	–	38 ± 7	–
CCCC(=O)NCCCC[C@@H]1NC(=O)[C@H](CCC(N)=O)NC(=O)[C@H](CC(C)C)NC(=O)[C@H](CCCCN)NC(=O)[C@H](CCCCN)NC(=O)[C@@H](Cc2ccccc2)NC(=O)[C@H](CCCCN)NC(=O)[C@H](CCCCN)NC(=O)[C@H](CC(C)C)NC(=O)[C@H](CCCCN)NC1=O [BPC716, c(K(CO-C3H7)KLKKfKKLQ)] (cyclo(K(Butyryl)KLKK[dF]KKLQ))	12.5 to 25	25 to 50 µM	25 to 50	–	3.1 to 6.2	–	2 ± 1	–	4 ± 0.5	–
CCCC(=O)NCCCC[C@@H]1NC(=O)[C@H](CCCCN)NC(=O)[C@H](CC(C)C)NC(=O)[C@H](CCCCN)NC(=O)[C@H](CCCCN)NC(=O)[C@H](CCC(N)=O)NC(=O)[C@H](CC(C)C)NC(=O)[C@H](CCCCN)NC(=O)[C@H](CCCCN)NC(=O)[C@H](Cc2c[nH]cn2)NC1=O [BPC718, c(KKLKK(CO-C3H7)HKKLQ)] (cyclo(HKKLQKKLKK(Butyryl)))	12.5 to 25	12.5 to 25 µM	>50	–	6.2 to 12.5	–	3 ± 1	–	4 ± 1	–
CCCC(=O)NCCCC[C@@H]1NC(=O)[C@H](CCCCN)NC(=O)[C@H](CCC(N)=O)NC(=O)[C@H](CC(C)C)NC(=O)[C@H](CCCCN)NC(=O)[C@H](CCCCN)NC(=O)[C@H](Cc2c[nH]cn2)NC(=O)[C@H](CCCCN)NC(=O)[C@H](CCCCN)NC(=O)[C@H](CC(C)C)NC1=O [BPC720] (cyclo(HKKLQKK(Butyryl)LKK))	12.5 to 25	12.5 to 25 µM	>50	–	<3.1	–	3 ± 1	–	4 ± 1	–
CCCC(=O)NCCCC[C@@H]1NC(=O)[C@H](CCC(N)=O)NC(=O)[C@H](CC(C)C)NC(=O)[C@H](CCCCN)NC(=O)[C@H](CCCCN)NC(=O)[C@H](Cc2c[nH]cn2)NC(=O)[C@H](CCCCN)NC(=O)[C@H](CCCCN)NC(=O)[C@H](CC(C)C)NC(=O)[C@H](CCCCN)NC1=O [BPC722] (cyclo(HKKLQK(Butyryl)KLKK))	>50	25 to 50 µM	>50	–	3.1 to 6.2	–	3 ± 0.2	–	3 ± 0.1	–
CCCC(=O)N[C@@H](CCCCN)C(=O)N[C@@H](CC(C)C)C(=O)NCCCC[C@H]1NC(=O)[C@H](CCCCN)NC(=O)[C@H](CC(C)C)NC(=O)[C@H](CCCCN)NC(=O)[C@H](CCCCN)NC(=O)[C@H](CCC(N)=O)NC(=O)[C@H](CC(C)C)NC(=O)[C@H](CCCCN)NC(=O)[C@H](CCCCN)NC(=O)[C@H](Cc2ccccc2)NC1=O [BPC724, c(KKLKk(LK-CO-C3H7)FKKLQ)] (cyclo(FKKLQKKLK[dK]([Leu-Lys-Butyryl])))	12.5 to 25	6.2 to 12.5 µM	25 to 50	–	<3.1	–	3 ± 2	–	3 ± 0.5	–
CCCC(=O)N[C@@H](CCCCN)C(=O)N[C@@H](CC(C)C)C(=O)NCCCC[C@@H]1NC(=O)[C@H](CCCCN)NC(=O)[C@H](CC(C)C)NC(=O)[C@H](CCCCN)NC(=O)[C@H](CCCCN)NC(=O)[C@H](CCC(N)=O)NC(=O)[C@H](CC(C)C)NC(=O)[C@H](CCCCN)NC(=O)[C@H](CCCCN)NC(=O)[C@@H](Cc2ccccc2)NC1=O [BPC726, c(KKLKK(LK-CO-C3H7)fKKLQ)] (cyclo(KKLKK([Leu-Lys-Butyryl])[dF]KKLQ))	12.5 to 25	6.2 to 12.5 µM	25 to 50	–	3.1 to 6.2	–	0 ± 1	–	4 ± 2	–
c(KKLKK(CO-C8H17)FKKLQ) [BPC594]	–	3.1 to 6.2 µM	25 to 50	–	6.2 to 12.5	–	–	< 12.5	–	6.2 to 12.5
